Usually EC50 stands for the midpoint of the concentration-response curve.

Assay [1] has as its system genotype 1a-H77 subgenomic replicon cell line. Put plainly: microbe, parasite or virus in culture. It counts as cell-based, HCV. Conditions: Hepatitis C virus, read-out: EC50 1a.
The test system of assay [2] is genotype 1b-Con1 subgenomic replicon cell line. Put plainly: microbe, parasite or virus in culture. The format is cell-based, HCV. The note with it: Hepatitis C virus, read-out: EC50 1b.

Bounds are passed on as bounds.

In the case of `COc1c(-c2ccc3c(c2)CC=C3CN(C)S(C)(=O)=O)cc(-n2ccc(=O)[nH]c2=O)cc1C(C)(C)C` [IB-L0-2.16, N-((6-(3-tert-butyl-5-(2,4-dioxo-3,4-dihydropyrimidin-1(2H)-yl)-2-methoxyphenyl)-1H-inden-3-yl)methyl)-N-methylmethanesulfonamide], the EC50 in assay [1] was 100 to 1000 nM; in assay [2], less than 10 nM.
The corresponding values for `COc1c(N2CCc3cc(NS(C)(=O)=O)ccc3C2)cc(-n2ccc(=O)[nH]c2=O)cc1C(C)(C)C` [IB-L0-2.19, N-(2-(3-tert-butyl-5-(2,4-dioxo-3,4-dihydropyrimidin-1(2H)-yl)-2-methoxyphenyl)-1,2,3,4-tetrahydroisoquinolin-6-yl)methanesulfonamide] are 10 to 100 nM and 10 to 100 nM.
On to `COc1c(-c2ccc3c(c2)CC[C@@]3(F)CNS(C)(=O)=O)cc(-n2ccc(=O)[nH]c2=O)cc1C(C)(C)C` [IB-L0-2.20, (S)—N-((5-(3-tert-butyl-5-(2,4-dioxo-3,4-dihydropyrimidin-1(2H)-yl)-2-methoxyphenyl)-1-fluoro-2,3-dihydro-1H-inden-1-yl)methyl)methanesulfonamide], for which the EC50 in assay [1] fell in the range of 100 to 1000 nM; in assay [2], 10 to 100 nM.
Take `COc1c(-c2ccc3nc(NS(C)(=O)=O)cnc3c2)cc(-n2ccc(=O)[nH]c2=O)cc1C(C)(C)C` [IB-L0-2.26, N-(6-(3-tert-butyl-5-(2,4-dioxo-3,4-dihydropyrimidin-1(2H)-yl)-2-methoxyphenyl)quinoxalin-2-yl)methanesulfonamide]: the EC50 in assay [1] is greater than 1000 nM; in assay [2] it was 100 to 1000 nM.
Consider `COc1c(-c2ccc3nc(N)sc3c2)cc(-n2ccc(=O)[nH]c2=O)cc1C(C)(C)C` [IB-L0-2.27, 1-(3-(2-aminobenzo[d]thiazol-6-yl)-5-tert-butyl-4-methoxy-phenyl)pyrimidine-2,4(1H,3H)-dione], for which the EC50 in assay [1] lay in the range of 100 to 1000 nM; in assay [2], 10 to 100 nM.
The corresponding values for `COc1c(-c2ccc3nc(NS(C)(=O)=O)sc3c2)cc(-n2ccc(=O)[nH]c2=O)cc1C(C)(C)C` [IB-L0-2.28, N-(6-(3-tert-butyl-5-(2,4-dioxo-3,4-dihydropyrimidin-1(2H)-yl)-2-methoxyphenyl)benzo[d]thiazol-2-yl)methanesulfonamide] are greater than 1000 nM and 100 to 1000 nM.
The corresponding values for `COc1c(-c2ccc3c(c2)CNC3=O)cc(-n2ccc(=O)[nH]c2=O)cc1C(C)(C)C` [IB-L0-2.30, 1-(3-tert-butyl-4-methoxy-5-(1-oxoisoindolin-5-yl)phenyl)-pyrimidine-2,4(1H,3H)-dione] are 100 to 1000 nM and 10 to 100 nM.
For the compound `COc1c(-c2ccc3c(c2)CCN3S(C)(=O)=O)cc(-n2ccc(=O)[nH]c2=O)cc1C(C)(C)C` [IB-L0-2.32, 1-(3-tert-butyl-4-methoxy-5-(1-(methylsulfonyl)indolin-5-yl)phenyl)pyrimidine-2,4(1H,3H)-dione], the figures for the EC50 in assay [1] and in assay [2] were 100 to 1000 nM and 10 to 100 nM, respectively.
In the case of `COc1c(-c2ccc3ncsc3c2)cc(-n2ccc(=O)[nH]c2=O)cc1C(C)(C)C` [IB-L0-2.33, 1-(3-(benzo[d]thiazol-6-yl)-5-tert-butyl-4-methoxyphenyl)pyrimidine-2,4(1H,3H)-dione], the EC50 in assay [1] and in assay [2] was 100 to 1000 nM throughout.
Regarding `COc1c(-c2ccc3nc(Cl)sc3c2)cc(-n2ccc(=O)[nH]c2=O)cc1C(C)(C)C` [IB-L0-2.38, 1-(3-tert-butyl-5-(2-chlorobenzo[d]thiazol-6-yl)-4-methoxyphenyl)pyrimidine-2,4(1H,3H)-dione], the EC50 in assay [1] and in assay [2] was greater than 1000 nM throughout.
For the compound `COc1c(-c2ccc3c(c2)CC=C3C(C)(C)NS(C)(=O)=O)cc(-n2ccc(=O)[nH]c2=O)cc1C(C)(C)C` [IB-L0-2.41, N-(2-(6-(3-tert-butyl-5-(2,4-dioxo-3,4-dihydropyrimidin-1(2H)-yl)-2-methoxyphenyl)-1H-inden-3-yl)propan-2-yl)methanesulfonamide], the EC50 in assay [1] and in assay [2] was 100 to 1000 nM in each case.
As for `COc1c(-c2ccc3c(C)coc3c2)cc(-n2ccc(=O)[nH]c2=O)cc1C(C)(C)C` [IB-L0-2.42, 1-(3-tert-butyl-4-methoxy-5-(3-methylbenzofuran-6-yl)phenyl)-pyrimidine-2,4(1H,3H)-dione], the EC50 in assay [1] and in assay [2] was 100 to 1000 nM in each case.
`COc1c(-c2ccc3c(c2)CCN(NS(C)(=O)=O)C3)cc(-n2ccc(=O)[nH]c2=O)cc1C(C)(C)C` [IB-L0-2.43, N-(6-(3-tert-butyl-5-(2,4-dioxo-3,4-dihydropyrimidin-1(2H)-yl)-2-methoxyphenyl)-3,4-dihydroisoquinolin-2(1B)-yl)methanesulfonamide]: the values for the EC50 in assay [1] and in assay [2] were greater than 1000 nM and 100 to 1000 nM, respectively.
Regarding `COc1c(-c2ccc3c(CNS(C)(=O)=O)noc3c2)cc(-n2ccc(=O)[nH]c2=O)cc1C(C)(C)C` [IB-L0-2.45, N-((6-(3-tert-butyl-5-(2,4-dioxo-3,4-dihydropyrimidin-1(2H)-yl)-2-methoxyphenyl)benzo[d]isoxazol-3-yl)methyl)methanesulfonamide], the figures for the EC50 in assay [1] and in assay [2] were greater than 1000 nM and 100 to 1000 nM, respectively.
The corresponding values for `COc1c(-c2ccc3c(c2)/C(=N/NS(C)(=O)=O)CC3)cc(-n2ccc(=O)[nH]c2=O)cc1-c1cccs1` [IB-L0-2.51, (E)-N′-(6-(5-(2,4-dioxo-3,4-dihydropyrimidin-1(2H)-yl)-2-methoxy-3-(thiophen-2-yl)phenyl)-2,3-dihydro-1H-inden-1-ylidene)methanesulfonohydrazide] are 10 to 100 nM and less than 10 nM.
In the same order, the values of `CCC(C)(C)c1cc(-n2ccc(=O)[nH]c2=O)cc(-c2ccc3cc(NS(C)(=O)=O)ccc3c2)c1OC` [IB-L0-2.52, N-(6-(5-(2,4-dioxo-3,4-dihydropyrimidin-1(2H)-yl)-2-methoxy-3-tert-pentylphenyl)naphthalen-2-yl)methanesulfonamide] are 10 to 100 nM and less than 10 nM.
In the same order, the values of `COc1c(-c2ccsc2)cc(-n2ccc(=O)[nH]c2=O)cc1-c1ccc2cc(NS(C)(=O)=O)ccc2c1` [IB-L0-2.53, N-(6-(5-(2,4-dioxo-3,4-dihydropyrimidin-1(2H)-yl)-2-methoxy-3-(thiophen-3-yl)phenyl)naphthalen-2-yl)methanesulfonamide] are 10 to 100 nM and 10 to 100 nM.
With `COc1c(-c2ccc3c(c2)/C(=N/NS(C)(=O)=O)CC3)cc(-n2ccc(=O)[nH]c2=O)cc1-c1ccco1` [IB-L0-2.55, (E)-N′-(6-(5-(2,4-dioxo-3,4-dihydropyrimidin-1(2H)-yl)-3-(furan-2-yl)-2-methoxyphenyl)-2,3-dihydro-1H-inden-1-ylidene)methanesulfonohydrazide], the EC50 is 10 to 100 nM in assay [1] and less than 10 nM in assay [2].
On to `COc1c(-c2ccc3cc(NS(C)(=O)=O)ccc3c2)cc(-n2ccc(=O)[nH]c2=O)cc1C(F)(F)F` [IB-L0-2.56, N-(6-(5-(2,4-dioxo-3,4-dihydropyrimidin-1(2H)-yl)-2-methoxy-3-(trifluoromethyl)phenyl)naphthalen-2-yl)methanesulfonamide], for which the half-maximal effective concentration (EC50) is 100 to 1000 nM in assay [1] and less than 10 nM in assay [2].
Take `COc1c(I)cc(-n2ccc(=O)[nH]c2=O)cc1-c1ccc2cc(NS(C)(=O)=O)ccc2c1` [IB-L0-2.57, N-(6-(5-(2,4-dioxo-3,4-dihydropyrimidin-1(2H)-yl)-3-iodo-2-methoxyphenyl)naphthalen-2-yl)methanesulfonamide]: the figures for the EC50 in assay [1] and in assay [2] were 100 to 1000 nM and 10 to 100 nM, respectively.
The corresponding values for `COc1c(-c2ccc3cc(NS(C)(=O)=O)ccc3c2)cc(-n2ccc(=O)[nH]c2=O)cc1-c1ccco1` [IB-L0-2.59, N-(6-(5-(2,4-dioxo-3,4-dihydropyrimidin-1(2H)-yl)-3-(furan-2-yl)-2-methoxyphenyl)naphthalen-2-yl)methanesulfonamide] are 100 to 1000 nM and 10 to 100 nM.
For the compound `COc1c(-c2ccc3cc(NS(C)(=O)=O)ccc3c2)cc(-n2ccc(=O)[nH]c2=O)cc1-c1cccs1` [IB-L0-2.61, N-(6-(5-(2,4-dioxo-3,4-dihydropyrimidin-1(2H)-yl)-2-methoxy-3-(thiophen-2-yl)phenyl)naphthalen-2-yl)methanesulfonamide], the EC50 in assay [1] lay within 100 to 1000 nM; in assay [2], 10 to 100 nM.
With `COc1c(-c2ccoc2)cc(-n2ccc(=O)[nH]c2=O)cc1-c1ccc2cc(NS(C)(=O)=O)ccc2c1` [IB-L0-2.64, N-(6-(5-(2,4-dioxo-3,4-dihydropyrimidin-1(2H)-yl)-3-(furan-3-yl)-2-methoxyphenyl)naphthalen-2-yl)methanesulfonamide], the EC50 was 100 to 1000 nM in assay [1] and less than 10 nM in assay [2].
Take `COCC(C)(C)c1cc(-n2ccc(=O)[nH]c2=O)cc(-c2ccc3cc(NS(C)(=O)=O)ccc3c2)c1OC` [IB-L0-2.66, N-(6-(5-(2,4-dioxo-3,4-dihydropyrimidin-1(2H)-yl)-2-methoxy-3-(1-methoxy-2-methylpropan-2-yl)phenyl)naphthalen-2-yl)methanesulfonamide]: the results for the EC50 in assay [1] and in assay [2] were 100 to 1000 nM and 10 to 100 nM, respectively.
As for `COc1c(-c2ccc3cc(NS(C)(=O)=O)ccc3c2)cc(-n2ccc(=O)[nH]c2=O)cc1S(C)(=O)=O` [IB-L0-2.68, N-(6-(5-(2,4-dioxo-3,4-dihydropyrimidin-1(2H)-yl)-2-methoxy-3-(methylsulfonyl)phenyl)naphthalen-2-yl)methanesulfonamide], the EC50 in assay [1] was greater than 1000 nM; in assay [2] it was 100 to 1000 nM.
Turning to `COc1c(Br)cc(-n2ccc(=O)[nH]c2=O)cc1-c1ccc2cc(NS(C)(=O)=O)ccc2c1` [IB-L0-2.69, N-(6-(3-bromo-5-(2,4-dioxo-3,4-dihydropyrimidin-1(2H)-yl)-2-methoxyphenyl)naphthalen-2-yl)methanesulfonamide], the EC50 in assay [1] is 100 to 1000 nM; in assay [2], 10 to 100 nM.
In the same order, the values of `COC(=O)C(C)(C)c1cc(-n2ccc(=O)[nH]c2=O)cc(-c2ccc3cc(NS(C)(=O)=O)ccc3c2)c1OC` [IB-L0-2.70, methyl 2-(5-(2,4-dioxo-3,4-dihydropyrimidin-1(2H)-yl)-2-methoxy-3-(6-(methylsulfonamido)naphthalen-2-yl)phenyl)-2-methylpropanoate] are greater than 1000 nM and 100 to 1000 nM.

For the origin of these results see patent publication US8415351B2 (priority 2007, dated 2013).
